Broadly, the T/C is the ratio of treated to control.

The values that follow come from PubChem BioAssay AID342 (DTP/NCI, 2004).

The subject of this assay is Swiss mice, Sarcoma 180 sc, mean tumor weight T/C. Nature of the assay: NCI In Vivo Anticancer Drug Screen. Data for tumor model Sarcoma 180 (subcutaneous) in Swiss mice. The settings on record: endpoint: mean tumor weight, higher = larger tumour. In a few lines:
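Mice bearing transplanted tumors were treated with compound, and survival or tumor size was measured. Values are expressed as the treated-group measurement (T) divided by the vehicle-treated control measurement (C).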

Where “and” joins values, the source holds several entries; their conditions need not be identical. Identical values can stand only once.

For `CC(C)[C@]1(O)CC[C@H]2[C@@H]3CCc4cc(O)ccc4[C@H]3CC[C@@]21C`, the T/C is 92 % of control (dose: 2.5 mg/kg/injection, schedule: Q01DX007 (sc), vehicle: steriod suspending solution); 60 % of control (dose: 5.0 mg/kg/injection, schedule: Q01DX007 (sc), vehicle: steriod suspending solution); 95 % of control (dose: 10.0 mg/kg/injection, schedule: Q01DX007 (sc), vehicle: steriod suspending solution).

As for `O=CNC(Cc1ccc(N(CCCl)CCCl)cc1)C(=O)O` (stereo not given), the T/C reads like this: (dose: 22.0 mg/kg/injection, schedule: Q#A X014 (ip), vehicle: methylcellulose (MC)) 61 % of control; (dose: 33.0 mg/kg/injection, schedule: Q#A X014 (ip), vehicle: methylcellulose (MC)) 60 % of control; (dose: 50.0 mg/kg/injection, schedule: Q#A X014 (ip), vehicle: methylcellulose (MC)) 25 % of control; (dose: 75.0 mg/kg/injection, schedule: Q#A X014 (ip), vehicle: methylcellulose (MC)) 11 % of control.

As to `Cc1nnc2ncnc(N)c2n1`, the T/C by setting is: (dose: 50.0 mg/kg/injection, schedule: Q01DX007 (ip), vehicle: carboxymethylcellulose (CMC)) 106 % of control; (dose: 75.0 mg/kg/injection, schedule: Q01DX007 (ip), vehicle: carboxymethylcellulose (CMC)) 105 % of control.

Turning to `SCc1ccccn1`, the T/C (dose: 62.0 mg/kg/injection, schedule: Q01DX007 (ip), vehicle: other) is 117 % of control and the T/C (dose: 125.0 mg/kg/injection, schedule: Q01DX007 (ip), vehicle: other) was 103 % of control.

For `CCCCN(CCCC)C(=O)c1[nH]cnc1N`, the T/C runs as follows: (dose: 100.0 mg/kg/injection, schedule: Q01DX007 (ip), vehicle: carboxymethylcellulose (CMC)) 55 % of control; (dose: 200.0 mg/kg/injection, schedule: Q01DX007 (ip), vehicle: carboxymethylcellulose (CMC)) 58 % of control; (dose: 250.0 mg/kg/injection, schedule: Q01DX007 (ip), vehicle: carboxymethylcellulose (CMC)) 87 % of control; (dose: 375.0 mg/kg/injection, schedule: Q01DX007 (ip), vehicle: carboxymethylcellulose (CMC)) 57 % of control.

For the compound `COc1ccc(C(=O)/C(Br)=C/C(=O)O)cc1`, the T/C runs as follows: (dose: 6.25 mg/kg/injection, schedule: Q01DX007 (ip), vehicle: water) 99 % of control; (dose: 12.5 mg/kg/injection, schedule: Q01DX007 (ip), vehicle: water) 82 % of control; (dose: 25.0 mg/kg/injection, schedule: Q01DX007 (ip), vehicle: water) 108 % of control.

Consider `CC(=O)C1=C(O)C2(O)C(=O)c3c(c(C)c4ccc(C)c(O)c4c3O)CC2C(N)C1=O` (stereo not given), for which the T/C reads like this: (dose: 18.8 mg/kg/injection, schedule: Q01DX007 (ip), vehicle: saline) 114 % of control; (dose: 37.5 mg/kg/injection, schedule: Q01DX007 (ip), vehicle: saline) 112 % of control; (dose: 75.0 mg/kg/injection, schedule: Q01DX007 (ip), vehicle: saline) 81 % of control; (dose: 150.0 mg/kg/injection, schedule: Q01DX007 (ip), vehicle: saline) 104 % of control.

For `O=C1C=CC(=O)N1c1ccc2c(c1)oc(=O)c1ccccc12`, the T/C is 76 % of control (dose: 60.0 mg/kg/injection, schedule: Q01DX007 (ip), vehicle: other); 58 % of control (dose: 95.0 mg/kg/injection, schedule: Q01DX007 (ip), vehicle: other); 51 % of control (dose: 99.0 mg/kg/injection, schedule: Q01DX007 (ip), vehicle: steriod suspending solution); 42 % of control (dose: 148.0 mg/kg/injection, schedule: Q01DX007 (ip), vehicle: other); 81 % of control (dose: 148.0 mg/kg/injection, schedule: Q01DX007 (ip), vehicle: steriod suspending solution); 36 % of control and 44 % of control (dose: 222.0 mg/kg/injection, schedule: Q01DX007 (ip), vehicle: other). The T/C runs as follows: (dose: 222.0 mg/kg/injection, schedule: Q01DX007 (ip), vehicle: steriod suspending solution) 69 % of control; (dose: 333.0 mg/kg/injection, schedule: Q01DX007 (ip), vehicle: other) 49 % of control; (dose: 500.0 mg/kg/injection, schedule: Q01DX007 (ip), vehicle: other) 29 % of control.

Consider `ON=C1c2cc(Cl)ccc2-c2ccc(Cl)cc21`, for which the T/C is, setting by setting: (dose: 26.6 mg/kg/injection, schedule: Q01DX007 (ip), vehicle: carboxymethylcellulose (CMC)) 77 % of control; (dose: 40.0 mg/kg/injection, schedule: Q01DX007 (ip), vehicle: carboxymethylcellulose (CMC)) 71 % of control; (dose: 60.0 mg/kg/injection, schedule: Q01DX007 (ip), vehicle: carboxymethylcellulose (CMC)) 61 % of control; (dose: 90.0 mg/kg/injection, schedule: Q01DX007 (ip), vehicle: carboxymethylcellulose (CMC)) 57 % of control.
